# Patent publication US20090061022A1, “Pharmaceutical composition comprising arsenite for the treatment of malignancy” (priority 2004, published 2009)
# How the values were obtained:
# RXF 944L = assay: Cytotoxic activity, propidium iodide fluorescence assay, panel of 9 human cancer cell lines; assay type: cell-based; details: RXF 944L renal cancer, 3-7 days
# Method: (§1) Three kinds of stock solutions were prepared for in vitro cytotoxic activity test. The first solution is DMSO (dimethyl sulfoxide) mixed with sodium meta-arsenite. […] The third solution is DMSO mixed with arsenic acid sodium salt. Those three solutions were diluted with culture medium (RPMI 1640). The final concentrations of DMSO in those three solutions are less than 0.3 vol %.
# (§2) Nine kinds of human cancer cell lines out of six kinds of cancers were grown at 37° C. under a controlled atmosphere of 95% air and 5% CO2. The cells were grown on monolayer cultures of RPMI 1640 cell culture medium supplemented with 10% fetal calf serum.
# (§3) The grown cells were harvested from exponential phase cultures by trypsinization and counted. The counted cells were placed in a plate, which has ninety six wells. Each well on the plate is in a shape of a flat-bottomed microtitre. Density of the cells in a suspension was adjusted depending on the cell line. The suspension was prepared by diluting the grown cells with the culture medium (RPMI 1640). Concentration of the cells were varied from 5×10^4 to 1×10^5 viable cells/ml. 100 μl of the suspension was placed in each well of the plate. […] Then add 50 μl of culture medium (RPMI 1640) only to 6 wells, 50 μl/well, among the 96 wells of one plate. It is called controlled. One well is filled with culture medium plus 5-FU. And another 50 μl of culture medium plus one of the stock solutions were added to each of the left 89 wells to allow cells to resume exponential growth.
# (§4) The cytotoxic activity test was executed with three plates simultaneously to check reliability of the data obtained. The three plates contain the same samples of cancer cells. The three plates were then incubated for 3-7 days under the same controlled atmosphere and cell proliferation was assessed with a modified propodium iodide fluorescence assay. After thawing of the plates, fluorescence was measured using a Millipore Cytofluor 2350-microplate reader (excitation 530 nm emission 620 nm) in order to quantify the total cell number. The assay included untreated and positive controls containing 5-FU.
# (§5) Growth inhibition is defined as (numbers of cancer cell alive) treated (T)/(number of cells) control (C)×100% (T/C %).
# CCRF-CEM = assay: as above; assay type: cell-based; details: CCRF-CEM leukemia, 3-7 days
# Method: as §1, §2, §3, §4, §5
# U937 = assay: as above; assay type: cell-based; details: U937 lymphoma, 3-7 days
# Method: as §1, §2, §3, §4, §5
# K562 = assay: as above; assay type: cell-based; details: K562 leukemia, 3-7 days
# Method: as §1, §2, §3, §4, §5
# UXF 1138 = assay: as above; assay type: cell-based; details: UXF 1138 uterine body, 3-7 days
# Method: as §1, §2, §3, §4, §5
# HT29 = assay: as above; assay type: cell-based; details: HT29 colon cancer, 3-7 days
# Method: as §1, §2, §3, §4, §5
# MEXF 462NL = assay: as above; assay type: cell-based; details: MEXF 462NL melanoma, 3-7 days
# Method: as §1, §2, §3, §4, §5
# LXFL 529L = assay: as above; assay type: cell-based; details: LXFL 529L NSCLC, 3-7 days
# Method: as §1, §2, §3, §4, §5
# RXF 944LX = assay: Dose finding study in human renal cancer model RXF 944LX in nude mice (i.p. days 0, 7, 14); details: for BW loss % (day) / Drug-related deaths / Rating / SGD (specific growth delay) / T/C %: days 0, 7, 14
# Excerpt: In a dose finding study, the potential anticancer activity of sodium meta-arsenite and arsenic acid sodium salt versus arsenic trioxide was examined in the human renal cancer model, RXF 944LX.
# Cancer fragments (1-2 mm in diameter), obtained from xenografts in serial passage in nude mice, were implanted subcutaneously (S.C.) in a flank of male NRMI nude mice (one fragment per mouse). Mice with appropriate cancer volumes (5-7 mm in diameter) were randomly distributed to treatment and control groups (4 mice/group). The start of treatment was day 0. Cancer volume and body weights were measured at least twice per week.
# 1) Sodium meta-arsenite (3, 10, 30 mg/kg/day), 2) Arsenic acid sodium salt (3, 10, 30 mg/kg/day) and 3) Arsenic trioxide (3, 10, 30 mg/kg/day) were administered intraperitoneally (i.p.) once daily on days 0, 7 and 14.
# Stock solution of sodium meta-arsenite and arsenic acid sodium salt (3 mg/ml) were prepared in 5% (w/v) dextrose solution, respectively, to minimize acute arsenic toxicity. For arsenic trioxide, 9 mg of arsenic trioxide was dissolved in 1M NaOH (75 μl) followed by mixing with sterile aqua injectabilia (2175 μl) and sterile 20% (w/v) dextrose in water (500 μl). Further dilution to the desired concentration was done with a 5% dextrose solution to give a final concentration of 3 mg/ml.
# The cancer volume of each animal was determined by two-dimensional measurement using calipers. The volume was calculated according to the formula: (a×b^2)×0.5; wherein a and b represent two perpendicular diameters in which a (length) is the larger diameter and b (width) the smaller diameter.
# Relative cancer volumes (RCV) were calculated for each individual cancer by dividing the cancer volume on day X by the cancer volume on day 0 multiplied by 100%. The cancer volume of a treatment group was expressed as the median RCV of all mice of the group. Median RCV values were used for drawing growth curves and treatment evaluation. Optimal cancer growth inhibition at a particular day within the treatment period was calculated from the median RCV values of the treated (T) versus the controlled (C) group multiplied by 100%. A T/C value<50% was considered as anti-cancer activity.
# [1] = 10 mg/kg i.p., listed as sodium meta-arsenite
smiles,measurement,setting,value
"O=[As][O-].[Na+] [Sodium meta-arsenite, sodium meta-arsenite]",T/C % at drug concentration,RXF 944L; 1 μg/ml,124%
same,T/C % at drug concentration,RXF 944L; 3 μg/ml,79%
same,T/C % at drug concentration,RXF 944L; 10 μg/ml,57%
same,T/C % at drug concentration,RXF 944L; 30 μg/ml,32%
same,T/C % at drug concentration,RXF 944L; 100 μg/ml,9%
same,T/C % at drug concentration,CCRF-CEM; 1 μg/ml,48%
same,T/C % at drug concentration,CCRF-CEM; 10 μg/ml,43%
same,T/C % at drug concentration,CCRF-CEM; 100 μg/ml,29%
same,T/C % at drug concentration,U937; 1 μg/ml,3%
same,T/C % at drug concentration,U937; 3 μg/ml,3%
same,T/C % at drug concentration,U937; 10 μg/ml,2%
same,T/C % at drug concentration,U937; 30 μg/ml,2%
same,T/C % at drug concentration,U937; 100 μg/ml,1%
same,T/C % at drug concentration,K562; 1 μg/ml,51%
same,T/C % at drug concentration,K562; 3 μg/ml,15%
same,T/C % at drug concentration,K562; 10 μg/ml,15%
same,T/C % at drug concentration,K562; 30 μg/ml,18%
same,T/C % at drug concentration,K562; 100 μg/ml,13%
same,T/C % at drug concentration,UXF 1138; 1 μg/ml,107%
same,T/C % at drug concentration,UXF 1138; 3 μg/ml,114%
same,T/C % at drug concentration,UXF 1138; 10 μg/ml,103%
same,T/C % at drug concentration,UXF 1138; 30 μg/ml,95%
same,T/C % at drug concentration,UXF 1138; 100 μg/ml,30%
same,T/C % at drug concentration,HT29; 1 μg/ml,91%
same,T/C % at drug concentration,HT29; 3 μg/ml,60%
same,T/C % at drug concentration,HT29; 10 μg/ml,40%
same,T/C % at drug concentration,HT29; 30 μg/ml,22%
same,T/C % at drug concentration,HT29; 100 μg/ml,14%
same,T/C % at drug concentration,MEXF 462NL; 1 μg/ml,112%
same,T/C % at drug concentration,MEXF 462NL; 3 μg/ml,120%
same,T/C % at drug concentration,MEXF 462NL; 10 μg/ml,101%
same,T/C % at drug concentration,MEXF 462NL; 30 μg/ml,91%
same,T/C % at drug concentration,MEXF 462NL; 100 μg/ml,15%
same,T/C % at drug concentration,LXFL 529L; 1 μg/ml,79%
same,T/C % at drug concentration,LXFL 529L; 3 μg/ml,61%
same,T/C % at drug concentration,LXFL 529L; 10 μg/ml,21%
same,T/C % at drug concentration,LXFL 529L; 30 μg/ml,7%
same,T/C % at drug concentration,LXFL 529L; 100 μg/ml,4%
same,BW loss % (day),RXF 944LX; 3 mg/kg i.p.,+6.8 (21) %
same,Drug-related deaths,RXF 944LX; 3 mg/kg i.p.,0/4
same,Rating,RXF 944LX; 3 mg/kg i.p.,+ (+T/C < 50)
same,SGD (specific growth delay),RXF 944LX; 3 mg/kg i.p.,0.4
same,T/C %,RXF 944LX; 3 mg/kg i.p.,19%
same,BW loss % (day),RXF 944LX; 10 mg/kg i.p.,+8.7 (21) %
same,Drug-related deaths,RXF 944LX; 10 mg/kg i.p.,0/4
same,Rating,RXF 944LX; 10 mg/kg i.p.,− (−T/C ≧ 50%)
same,SGD (specific growth delay),RXF 944LX; 10 mg/kg i.p.,−0.1
same,T/C %,RXF 944LX; 10 mg/kg i.p.,51%
same,BW loss % (day),RXF 944LX; [1],no lethality or body weight loss was observed
same,Drug-related deaths,RXF 944LX; [1],no lethality or body weight loss was observed
same,Drug-related deaths,RXF 944LX; 30 mg/kg i.p.,4/4
same,Drug-related deaths,"RXF 944LX; 30 mg/kg i.p., listed as sodium meta-arsenite",died within a few days after the first injection
same,Maximum Tolerated Dose (MTD),"RXF 944LX; i.p. once daily on days 0, 7 and 14, RXF 944LX bearing nude mice",10 mg/kg/day
